Results: patent US20240083892A1 (BISICHEM CO., LTD., priority 2021, published 2024)

Legend:
RIPK1 [1] = molecular target: T1, RIPK1 (Homo sapiens, UniProt Q13546); assay: Cell-based necroptosis assay for RIPK1 activity (cell viability by CCK-8); settings: HT-29 cells; Z-VAD-FMK 20 μM, human TNFα 10 ng/ml, SM-164 100 nM; 24 h; read-out: Cell-base RIPK1 activity: Necroptosis
T1 construct: endogenous in cells; host or cells: HT-29 (KCLB 30038)
T1 sequence (Q13546 1-671): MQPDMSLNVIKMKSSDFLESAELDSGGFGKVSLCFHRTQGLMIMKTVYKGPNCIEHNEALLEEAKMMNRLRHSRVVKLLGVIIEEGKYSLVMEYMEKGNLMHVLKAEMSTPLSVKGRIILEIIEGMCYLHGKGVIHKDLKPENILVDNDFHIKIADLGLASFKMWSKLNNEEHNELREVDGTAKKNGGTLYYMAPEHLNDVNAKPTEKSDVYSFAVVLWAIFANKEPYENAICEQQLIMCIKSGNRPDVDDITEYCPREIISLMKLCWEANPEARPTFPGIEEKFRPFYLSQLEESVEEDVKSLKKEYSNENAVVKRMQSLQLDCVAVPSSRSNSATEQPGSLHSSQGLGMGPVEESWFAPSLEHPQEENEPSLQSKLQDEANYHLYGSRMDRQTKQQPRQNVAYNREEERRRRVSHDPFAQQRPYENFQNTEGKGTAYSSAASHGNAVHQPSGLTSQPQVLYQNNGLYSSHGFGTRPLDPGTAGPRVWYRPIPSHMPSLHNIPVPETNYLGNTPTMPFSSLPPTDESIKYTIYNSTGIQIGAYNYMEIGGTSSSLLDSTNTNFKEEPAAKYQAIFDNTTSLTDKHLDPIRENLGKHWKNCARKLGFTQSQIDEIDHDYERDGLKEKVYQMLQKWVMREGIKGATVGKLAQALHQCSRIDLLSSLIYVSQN
Method: (§1) Human colon carcinoma cell HT-29 (KCLB 30038), BV2 mouse microglial cell (cell was a kind gift from Dr. Nak-Yun Sung, Senior researcher at Korea Prime Pharmacy CO., LTD.) and human microglial cell HMC3 (ATCC® CRL-3304™). HT-29 cell was grown in Roswell Park Memorial Institute (RPMI) 1640, BV2 cell was grown in Dulbecco's Modified Eagle's Medium (DMEM) and HMC3 cell was grown in Minimum Essential Media Eagle (MEM) supplemented with 10% fetal bovine serum and 1% mixture of penicillin and streptomycin (Gibco). Cells were maintained at 37° C. in a humidified 5% CO2 atmosphere.
To measure the activity of RIPK1 inhibitor in necroptotic cells, HT-29 cells were treated by control DMSO, human TNFα (Peprotech, Rocky Hill, USA), SM-164 (Biovision, California, USA) and a pan-caspase inhibitor Z-VAD-FMK (Invivogen, San Diego, USA). Cells were pretreated with Z-VAD-FMK 20 μM. After 30 min, human TNFα 10 ng/ml, SM-164 100 nM and RIPK1 Inhibitor (0.0001, 0.001, 0.01, 0.02, 0.05, 0.1, 1, 10 uM) were treated for 24 h. Cell viability was measured by Cell Counting Kit 8 (CCK-8) (Dong-in, Seoul, Korea).

RIPK1 [2] = molecular target: T1, RIPK1; assay: Immunoblotting of TNFα induced phospho-RIPK1 (ser 166) levels; assay type: cell-based; settings: HMC3 cells; Z-VAD-FMK, human TNFα 20 ng/ml, SM-164 100 nM; 7 h, serum free media; read-out: Cell-base RIPK1 activity: phspho-RIPK1 (Ser166)
Method: as §1
Biological activity of the compounds of RIPK1 inhibitor was determined by measuring their ability to inhibitor TNFα induced phospho-RIPK1 (ser 166) levels, phospho-RIPK3 levels, phospho-MLKL levels in HMC3 cells. Cells were pretreated with Z-VAD-FMK […]. After 30 min, human TNFα 20 ng/ml, SM-164 100 nM and RIPK1 inhibitor (0.1, 1, 10 nM) were treated for 7 h under serum free media. Cells were lysed with cold lysis buffer containing 25 mM HEPES pH 7.6, […] NaCl, 1% NP40, 1% sodium deoxycholate, 0.1% SDS, and protease inhibitor mixture (Bimake, Houston, USA) using sonicators. The cells were centrifuged at 15,000 rpm, 4° C. for 5 min. After protein concentration of the lysates (supernatants) was quantified using BCA assay (Thermo Fisher Scientific, Waltham, USA), lysates were mixed with LDS sample buffer and heating at […] for 10 min. (Invitrogen, California, USA). […] The membranes are placed in an image analyzer (Imagequant, LAS 500, GE Healthcare), connected to a computer which allows the image generation (software Image reader LAS 500).

Structure (SMILES) | IC50 (RIPK1 [1]) [nM] | IC50 (RIPK1 [2]) [nM]
CN1C(=O)[C@@H](NC(=O)n2cc(Cc3cccc(F)c3)cn2)COc2ccc(C(=O)N3CCCCC3)cc21 [Example 1, (S)-4-(3-fluorobenzyl)-N-(5-methyl-4-oxo-7-(piperidine-1-carbonyl)-2,3,4,5-tetrahydrobenzo[b][1,4]oxazepin-3-yl)-1H-pyrazole-1-carboxamide] | 10 to 50 | 10 to 50
CN1C(=O)[C@@H](NC(=O)n2cc(Cc3cccc(F)c3)cn2)COc2ccc(C(=O)N3CCC(C)(C)CC3)cc21 [Example 2, (S)—N-(7-(4,4-dimethylpiperidine-1-carbonyl)-5-methyl-4-oxo-2,3,4,5-tetrahydrobenzo[b][1,4]oxazepin-3-yl)-4-(3-fluorobenzyl)-1H-pyrazole-1-carboxamide] | < 10 | < 10
CN1C(=O)[C@@H](NC(=O)n2cc(Cc3cccc(F)c3)cn2)COc2ccc(C(=O)N3CCC(F)(F)CC3)cc21 [Example 3] | 10 to 50 | 10 to 50
CN1C(=O)[C@@H](NC(=O)n2cc(Cc3cccc(F)c3)cn2)COc2ccc(C(=O)N3CCC(O)CC3)cc21 [Example 4, (S)-4-(3-fluorobenzyl)-N-(7-(4-hydroxypiperidine-1-carbonyl)-5-methyl-4-oxo-2,3,4,5-tetrahydrobenzo[b][1,4]oxazepin-3-yl)-1H-pyrazole-1-carboxamide] | 10 to 50 | < 10
CN1C(=O)[C@@H](NC(=O)n2cc(Cc3cccc(F)c3)cn2)COc2ccc(C(=O)N3CCC(C)(O)CC3)cc21 [Example 5, (S)-4-(3-fluorobenzyl)-N-(7-(4-hydroxy-4-methylpiperidine-1-carbonyl)-5-methyl-4-oxo-2,3,4,5-tetrahydrobenzo[b][1,4]oxazepin-3-yl)-1H-pyrazole-1-carboxamide] | < 10 | < 10
CN1C(=O)[C@@H](NC(=O)n2cc(Cc3cccc(F)c3)cn2)COc2ccc(C(=O)N3CCC(C(C)(C)O)CC3)cc21 [Example 6, (S)-4-(3-fluorobenzyl)-N-(7-(4-(2-hydroxypropan-2-yl)piperidine-1-carbonyl)-5-methyl-4-oxo-2,3,4,5-tetrahydrobenzo[b][1,4]oxazepin-3-yl)-1H-pyrazole-1-carboxamide] | < 10 | < 10
CN1CCN(C(=O)c2ccc3c(c2)N(C)C(=O)[C@@H](NC(=O)n2cc(Cc4cccc(F)c4)cn2)CO3)CC1 [Example 7, (S)-4-(3-fluorobenzyl)-N-(5-methyl-7-(4-methylpiperazine-1-carbonyl)-4-oxo-2,3,4,5-tetrahydrobenzo[b][1,4]oxazepin-3-yl)-1H-pyrazole-1-carboxamide] | 10 to 50 | 
CN1C(=O)[C@@H](NC(=O)n2cc(Cc3cccc(F)c3)cn2)COc2ccc(C(=O)N3CCNCC3)cc21 [Example 8, (S)-4-(3-fluorobenzyl)-N-(5-methyl-4-oxo-7-(piperazine-1-carbonyl)-2,3,4,5-tetrahydrobenzo[b][1,4]oxazepin-3-yl)-1H-pyrazole-1-carboxamide] | > 50 | 
CN1C(=O)[C@@H](NC(=O)n2cc(Cc3cccc(F)c3)cn2)COc2ccc(C(=O)N3CCOCC3)cc21 [Example 9, (S)-4-(3-fluorobenzyl)-N-(5-methyl-7-(morpholine-4-carbonyl)-4-oxo-2,3,4,5-tetrahydrobenzo[b][1,4]oxazepin-3-yl)-1H-pyrazole-1-carboxamide] | 10 to 50 | 
CN1C(=O)[C@@H](NC(=O)n2cc(Cc3cccc(F)c3)cn2)COc2ccc(C(=O)N3CCC(O)C3)cc21 (stereo partly drawn) [Example 10, 4-(3-fluorobenzyl)-N-((3S)-7-(3-hydroxypyrrolidine-1-carbonyl)-5-methyl-4-oxo-2,3,4,5-tetrahydrobenzo[b][1,4]oxazepin-3-yl)-1H-pyrazole-1-carboxamide] | < 10 | 
CN(Cc1ccncc1)C(=O)c1ccc2c(c1)N(C)C(=O)[C@@H](NC(=O)n1cc(Cc3cccc(F)c3)cn1)CO2 [Example 11] | < 10 | < 10
CN(C(=O)c1ccc2c(c1)N(C)C(=O)[C@@H](NC(=O)n1cc(Cc3cccc(F)c3)cn1)CO2)c1ccncc1 [Example 12, (S)-3-(4-(3-fluorobenzyl)-1H-pyrazole-1-carboxamido)-N,5-dimethyl-4-oxo-N-(pyridin-4-yl)-2,3,4,5-tetrahydrobenzo[b][1,4]oxazepine-7-carboxamide] | 10 to 50 | 10 to 50
CN1C(=O)[C@@H](NC(=O)n2cc(Cc3cccc(F)c3)cn2)COc2ccc(C(=O)NOCC(C)(C)O)cc21 [Example 13, (S)-3-(4-(3-fluorobenzyl)-1H-pyrazole-1-carboxamido)-N-(2-hydroxy-2-methylpropoxy)-5-methyl-4-oxo-2,3,4,5-tetrahydrobenzo[b][1,4]oxazepine-7-carboxamide] | 10 to 50 | 
CN1C(=O)[C@@H](NC(=O)n2cc(Cc3cccc(F)c3)cn2)COc2ccc(C(=O)N3CC4(COC4)C3)cc21 [Example 14, (S)-4-(3-fluorobenzyl)-N-(5-methyl-4-oxo-7-(2-oxa-6-azaspiro[3.3]heptane-6-carbonyl)-2,3,4,5-tetrahydrobenzo[b][1,4]oxazepin-3-yl)-1H-pyrazole-1-carboxamide] | 10 to 50 | 10 to 50
CC(C)CCCOc1ccc2c(c1)N(C)C(=O)[C@@H](NC(=O)n1cc(Cc3cccc(F)c3)cn1)CO2 [Example 15, (S)-4-(3-fluorobenzyl)-N-(5-methyl-7-((4-methylpentyl)oxy)-4-oxo-2,3,4,5-tetrahydrobenzo[b][1,4]oxazepin-3-yl)-1H-pyrazole-1-carboxamide] | < 10 | < 10
CN(C)CCOc1ccc2c(c1)N(C)C(=O)[C@@H](NC(=O)n1cc(Cc3cccc(F)c3)cn1)CO2 [Example 17, (S)—N-(7-(2-(dimethylamino)ethoxy)-5-methyl-4-oxo-2,3,4,5-tetrahydrobenzo[b][1,4]oxazepin-3-yl)-4-(3-fluorobenzyl)-1H-pyrazole-1-carboxamide] | 10 to 50 | 
CN1C(=O)[C@@H](NC(=O)n2cc(Cc3cccc(F)c3)cn2)COc2ccc(O[C@@H]3CCOC3)cc21 [Example 32, 4-(3-fluorobenzyl)-N—((S)-5-methyl-4-oxo-7-(((R)-tetrahydrofuran-3-yl)oxy)-2,3,4,5-tetrahydrobenzo[b][1,4]oxazepin-3-yl)-1H-pyrazole-1-carboxamide] | < 10 | 
CN1CC[C@@H](Oc2ccc3c(c2)N(C)C(=O)[C@@H](NC(=O)n2cc(Cc4cccc(F)c4)cn2)CO3)C1 [Example 33, 4-(3-fluorobenzyl)-N—((S)-5-methyl-7-(((R)-1-methylpyrrolidin-3-yl)oxy)-4-oxo-2,3,4,5-tetrahydrobenzo[b][1,4]oxazepin-3-yl)-1H-pyrazole-1-carboxamide] | 10 to 50 | 
CN1C(=O)[C@@H](NC(=O)n2cc(Cc3cccc(F)c3)cn2)COc2ccc(OCC(=O)NCC(C)(C)O)cc21 [Example 52, (S)-4-(3-fluorobenzyl)-N-(7-(2-((2-hydroxy-2-methylpropyl)amino)-2-oxoethoxy)-5-methyl-4-oxo-2,3,4,5-tetrahydrobenzo[b][1,4]oxazepin-3-yl)-1H-pyrazole-1-carboxamide] | < 10 | 
